{
  "source": "ChEMBL document CHEMBL5338791",
  "about": "“Discovery of Novel 1,3-Diphenylpyrazine Derivatives as Potent S-Phase Kinase-Associated Protein 2 (Skp2) Inhibitors for the Treatment of Cancer” (J Med Chem, 2023)",
  "key": {"[1]": {"experiment": "Toxicity in NOD-SCID mouse model xenografted with human MGC-803 cells assessed as change in liver histology at 10 to 50 mg/kg, IG administered once every 2 days for 21 days by H and E staining based analysis", "format": "organism-based", "conditions": "in vivo, po, 504 h, dose 10-50 mg/kg, time 21 day"}, "MGC-803 [2]": {"tested_on": "MGC-803", "experiment": "Upregulation of p21 level in human MGC-803 cells upto 10 uM by Western blot analysis", "format": "functional, cell-based", "conditions": "time 48.0 hrs, TDE = time-dependent effect"}, "PC-3 [3]": {"tested_on": "PC-3", "experiment": "Induction of cell cycle arrest in human PC-3 cells assessed as accumulation of cells at S phase at 10 uM incubated for 6 hrs by flow cytometry (reference value: 19.7 %)", "format": "functional"}, "[4]": {"experiment": "Toxicity in NOD-SCID mouse model xenografted with human MGC-803 cells assessed as change in lung histology at 10 to 50 mg/kg, IG administered once every 2 days for 21 days by H and E staining based analysis", "format": "organism-based", "conditions": "in vivo, po, 504 h, dose 10-50 mg/kg, time 21 day"}, "MGC-803 [5]": {"tested_on": "MGC-803", "experiment": "Induction of apoptosis in human MGC-803 cells assessed as early apoptotic cells at 10 uM incubated for 48 hrs by annexin V-FITC/PI staining based flow cytometry (reference value: 0.21 %)", "format": "functional"}, "MGC-803 [6]": {"tested_on": "MGC-803", "experiment": "Induction of cell cycle arrest in human MGC-803 cells assessed as accumulation of cells at G1 phase at 10 uM incubated for 24 hrs by flow cytometry (reference value: 57.09 %)", "format": "functional"}, "[7]": {"experiment": "Toxicity in NOD-SCID mouse model xenografted with human PC-3 cells assessed as change in liver histology at 10 to 50 mg/kg, IG administered once every 2 days for 21 days by H and E staining based analysis", "format": "organism-based", "conditions": "in vivo, po, 504 h, dose 10-50 mg/kg, time 21 day"}, "PC-3 [8]": {"tested_on": "PC-3", "experiment": "Antitumor activity against human PC-3 cells xenografted in NOD-SCID mouse model assessed as p21 accumulation at 10 to 50 mg/kg, IG administered once every 2 days for 21 days by Western blot analysis", "format": "functional, organism-based", "conditions": "dose 10-50 mg/kg, time 21.0 day"}, "PC-3 [9]": {"tested_on": "PC-3", "experiment": "Upregulation of p21 level in human PC-3 cells upto 10 uM by Western blot analysis", "format": "functional, cell-based", "conditions": "time 48.0 hrs, TDE = time-dependent effect"}, "MGC-803 [10]": {"tested_on": "MGC-803", "experiment": "Induction of cell cycle arrest in human MGC-803 cells assessed as accumulation of cells at G1 phase at 10 uM incubated for 48 hrs by flow cytometry (reference value: 54.46 %)", "format": "functional"}, "[11]": {"experiment": "Toxicity in NOD-SCID mouse model xenografted with human MGC-803 cells assessed as body weight change at 10 to 50 mg/kg, IG administered once every 2 days for 21 days", "format": "organism-based", "conditions": "in vivo, po, 504 h, dose 10-50 mg/kg, time 21 day"}, "MGC-803 [12]": {"tested_on": "MGC-803", "experiment": "Inhibition of cell migration in human MGC-803 cells by transwell invasion assay", "format": "functional, cell-based", "conditions": "dose <= 2.0 µM"}, "[13]": {"experiment": "Cmax in tumor of NOD-SCID mouse model xenografted with human PC-3 cells at 25 mg/kg, IG measured upto 48 hrs by LC-MS/MS analysis", "format": "ADME, organism-based, Neoplasm", "set-up": "time < 48 hrs, dose 25 mg/kg, route ig", "conditions": "po"}, "PC-9": {"tested_on": "PC-9", "experiment": "Antitumor activity against human PC-9 cells overexpressing Skp2 assessed as cell growth inhibition incubated for 72 hrs by MTT assay", "format": "functional, cell-based", "conditions": "PC-9, 72 h"}, "MGC-803 [14]": {"tested_on": "MGC-803", "experiment": "Induction of apoptosis in human MGC-803 cells assessed as late apoptotic cells at 2.5 uM incubated for 48 hrs by annexin V-FITC/PI staining based flow cytometry (reference value: 0.95 %)", "format": "functional"}, "[15]": {"experiment": "MRTlast in plasma of NOD-SCID mouse model xenografted with human PC-3 cells at 25 mg/kg, IG measured upto 48 hrs by LC-MS/MS analysis", "format": "ADME, organism-based", "conditions": "po"}, "PC-3 [16]": {"tested_on": "PC-3", "experiment": "Induction of cell cycle arrest in human PC-3 cells assessed as accumulation of cells at G1 phase at 10 uM incubated for 6 hrs by flow cytometry (reference value: 56.81 %)", "format": "functional"}, "PC-3 [17]": {"tested_on": "PC-3", "experiment": "Induction of apoptosis in human PC-3 cells assessed as necrotic cells at 2.5 uM incubated for 48 hrs by annexin V-FITC/PI staining based flow cytometry (reference value: 0.14 %)", "format": "functional"}, "[18]": {"experiment": "Metabolic stability in human liver S9 fraction assessed as half life at 20 umol/L preincubated for 5 mins followed by NADPH addition measured upto 60 mins by LC-MS/MS analysis", "format": "ADME, subcellular", "conditions": "dose 20 µmol/L, time < 65 min"}, "PC-3 [19]": {"tested_on": "PC-3", "experiment": "Induction of cell cycle arrest in human PC-3 cells assessed as accumulation of cells at G1 phase at 10 uM incubated for 48 hrs by flow cytometry (reference value: 57.39 %)", "format": "functional"}, "[20]": {"experiment": "AUC (infinity) in tumor of NOD-SCID mouse model xenografted with human PC-3 cells at 25 mg/kg, IG measured upto 48 hrs by LC-MS/MS analysis", "format": "ADME, organism-based, Neoplasm", "set-up": "dose 25 mg/kg, time < 48 hrs, route ig", "conditions": "in vivo, po"}, "PC-3 [21]": {"tested_on": "PC-3", "experiment": "Induction of cell cycle arrest in human PC-3 cells assessed as accumulation of cells at G2 phase at 5 uM incubated for 48 hrs by flow cytometry (reference value: 22.59 %)", "format": "functional"}, "MGC-803 [22]": {"tested_on": "MGC-803", "experiment": "Induction of cell cycle arrest in human MGC-803 cells assessed as accumulation of cells at S phase at 10 uM incubated for 24 hrs by flow cytometry (reference value: 20.41 %)", "format": "functional"}, "MGC-803 [23]": {"tested_on": "MGC-803", "experiment": "Induction of cell cycle arrest in human MGC-803 cells assessed as accumulation of cells at G1 phase at 10 uM incubated for 6 hrs by flow cytometry (reference value: 57.09 %)", "format": "functional"}, "MGC-803 [24]": {"tested_on": "MGC-803", "experiment": "Induction of apoptosis in human MGC-803 cells assessed as nuclear fragmentation incubated for 48 hrs", "format": "functional, cell-based", "conditions": "dose <= 10.0 µM"}, "PC-3 [25]": {"tested_on": "PC-3", "experiment": "Downregulation of Skp2 level in human PC-3 cells incubated for 48 hrs by Western blot analysis", "format": "functional, cell-based", "conditions": "dose <= 10.0 µM"}, "[26]": {"experiment": "Toxicity in NOD-SCID mouse model xenografted with human PC-3 cells assessed as change in kidney histology at 10 to 50 mg/kg, IG administered once every 2 days for 21 days by H and E staining based analysis", "format": "organism-based", "conditions": "in vivo, po, 504 h, dose 10-50 mg/kg, time 21 day"}, "MGC-803 [27]": {"tested_on": "MGC-803", "experiment": "Induction of apoptosis in human MGC-803 cells assessed as late apoptotic cells at 10 uM incubated for 48 hrs by annexin V-FITC/PI staining based flow cytometry (reference value: 0.95 %)", "format": "functional"}, "MGC-803 [28]": {"tested_on": "MGC-803", "experiment": "Induction of cell cycle arrest in human MGC-803 cells assessed as accumulation of cells at G2 phase at 10 uM incubated for 24 hrs by flow cytometry (reference value: 20.64 %)", "format": "functional"}, "ES-2": {"tested_on": "ES-2", "experiment": "Antitumor activity against human ES2 cells overexpressing Skp2 assessed as cell growth inhibition incubated for 72 hrs by MTT assay", "format": "functional, cell-based", "conditions": "ES-2, 72 h"}, "MGC-803 [29]": {"tested_on": "MGC-803", "experiment": "Induction of cell cycle arrest in human MGC-803 cells assessed as accumulation of cells at G2 phase at 2.5 uM incubated for 48 hrs by flow cytometry (reference value: 21.35 %)", "format": "functional"}, "PC-3 [30]": {"tested_on": "PC-3", "experiment": "Induction of cell cycle arrest in human PC-3 cells assessed as accumulation of cells at G1 phase at 10 uM incubated for 48 hrs by flow cytometry (reference value: 56.81 %)", "format": "functional"}, "MGC-803 [31]": {"tested_on": "MGC-803", "experiment": "Induction of apoptosis in human MGC-803 cells assessed as late apoptotic cells at 5 uM incubated for 48 hrs by annexin V-FITC/PI staining based flow cytometry (reference value: 0.95 %)", "format": "functional"}, "[32]": {"experiment": "Solubility in cell culture medium by HPLC analysis", "format": "physicochemical"}, "[33]": {"experiment": "Half life in plasma of NOD-SCID mouse model xenografted with human PC-3 cells at 25 mg/kg, IG measured upto 48 hrs by LC-MS/MS analysis", "format": "ADME, organism-based", "conditions": "po"}},
  "note": "Active and inactive are the calls of the source. No cut-off for these calls is given here.",
  "data": [
    {"compound": "O=C(CCl)NC1CCN(c2cnc(-c3ccccc3)c(-c3ccccc3)n2)CC1", "values": [
      {"measurement": "Activity", "setting": "[1]", "result": "Non-Toxic"},
      {"measurement": "Activity", "setting": "MGC-803 [2]", "result": "Tde"},
      {"measurement": "Activity", "setting": "PC-3 [3]", "result": 28.11, "unit": "%"},
      {"measurement": "Activity", "setting": "[4]", "result": "Non-Toxic"},
      {"measurement": "Activity", "setting": "MGC-803 [5]", "result": 3.41, "unit": "%"},
      {"measurement": "Activity", "setting": "MGC-803 [6]", "result": 44.68, "unit": "%"},
      {"measurement": "Activity", "setting": "[7]", "result": "Non-Toxic"},
      {"measurement": "Activity", "setting": "PC-3 [8]", "result": "Active"},
      {"measurement": "Activity", "setting": "PC-3 [9]", "result": "Tde"},
      {"measurement": "Activity", "setting": "MGC-803 [10]", "result": 39.31, "unit": "%"},
      {"measurement": "Activity", "setting": "[11]", "result": "Non-Toxic"},
      {"measurement": "inhibition", "setting": "MGC-803 [12]", "result": "Dose-Dependent Effect"},
      {"measurement": "Cmax", "setting": "[13]", "result": 182, "unit": "ng/g"},
      {"measurement": "IC50", "setting": "PC-9", "result": 8.1, "unit": "µM"},
      {"measurement": "Activity", "setting": "MGC-803 [14]", "result": 6.57, "unit": "%"},
      {"measurement": "MRT last at 48 h", "setting": "[15]", "result": 13.4, "unit": "h"},
      {"measurement": "Activity", "setting": "PC-3 [16]", "result": 46.91, "unit": "%"},
      {"measurement": "Activity", "setting": "PC-3 [17]", "result": 1.86, "unit": "%"},
      {"measurement": "half-life at 20 µM", "setting": "[18]", "result": 1.08, "unit": "h"},
      {"measurement": "Activity", "setting": "PC-3 [19]", "result": 39.51, "unit": "%"},
      {"measurement": "AUC", "setting": "[20]", "result": 2636, "unit": "ng·h/g"},
      {"measurement": "Activity", "setting": "PC-3 [21]", "result": 16.41, "unit": "%"},
      {"measurement": "Activity", "setting": "MGC-803 [22]", "result": 35.4, "unit": "%"},
      {"measurement": "Activity", "setting": "MGC-803 [23]", "result": 47.84, "unit": "%"},
      {"measurement": "Activity", "setting": "MGC-803 [24]", "result": "Dose-Dependent Effect"},
      {"measurement": "Activity", "setting": "PC-3 [25]", "result": "Dose-Dependent Effect"},
      {"measurement": "Activity", "setting": "[26]", "result": "Non-Toxic"},
      {"measurement": "Activity", "setting": "MGC-803 [27]", "result": 24.9, "unit": "%"},
      {"measurement": "Activity", "setting": "MGC-803 [28]", "result": 17.72, "unit": "%"},
      {"measurement": "IC50", "setting": "ES-2", "result": 3.6, "unit": "µM"},
      {"measurement": "Activity", "setting": "MGC-803 [29]", "result": 23.15, "unit": "%"},
      {"measurement": "Activity", "setting": "PC-3 [30]", "result": 35.47, "unit": "%"},
      {"measurement": "Activity", "setting": "MGC-803 [31]", "result": 12.3, "unit": "%"},
      {"measurement": "solubility", "setting": "[32]", "result": 3.26, "unit": "µg/mL"},
      {"measurement": "half-life", "setting": "[33]", "result": 14.1, "unit": "h"}
    ]}
  ]
}
